Results as given in patent publication US20240252446A1, “DERIVATIZED COLLAGEN-HYALURONIC ACID BASED IMPLANTS FOR SUSTAINED DELIVERY OF OPHTHALMIC DRUGS” (SUSTAINED DRUG DELIVERY LLC, priority 2023, published 2024).

Assay: Evaluation of active agent release in vitro from polymerized collagen-hyaluronic acid film (HPLC)
Type: physicochemical
Conditions: from UV-polymerized (18 min, 254 nm) collagen-hyaluronic acid film, 0.01 M phosphate buffer pH 7.4, 37° C., 1 hour to 3 months
Procedure: Four round pieces of 35 mm diameter polymerized film were cut into 4 sections and placed in 1.5 mL vials containing 1 mL of 0.01 M phosphate buffer at a pH of 7.4. The 16 vials were placed in a controlled temperature chamber at 37° C. Five aliquots of 100 μL were removed from 2 vials each at 1 hour, 3 days, 7 days, 2 weeks, 1 month, 2 months, and 3 months. Two vials were reserved for additional time periods if release was still noted at 3 months. Four vials of buffer only were used for controls.
Active agent concentration (e.g., Latanoprost) was measured by HPLC at Millennium Research Laboratories. Detection at nanogram levels was validated using active agent (e.g., Latanoprost) standards and concentration curves.

Which “Active agent release profile” value does the source give for CC(C)OC(=O)CCC/C=C\C[C@@H]1[C@@H](CC[C@@H](O)CCc2ccccc2)[C@H](O)C[C@@H]1O [Latanoprost, 13,14-dihydro-17-phenyl-18,19,20-trinor-prostaglandin F2a-1-isopropyl ester] here?
Its value is “initial bolus release at 1 day followed by sustained, zero order release through 3 months”.
